Key:
15-PGDH = biological target: T1, 15-PGDH (Homo sapiens, UniProt P15428); assay: A549 cell based assay: PGE2 in supernatant (HTRF), fold induction over IL-1β; details: A549 cells; for fold induction at 0.001 µM: compound 0.001 μM plus IL-1β versus IL-1β only, read-out: PGE2-HTRF over IL1-β: Fold induction at 0.001 μM; for fold induction at 0.01 µM: compound 0.01 μM plus IL-1β versus IL-1β only, read-out: PGE2-HTRF over IL1-β: Fold induction at 0.01 μM; for fold induction at 0.1 µM: compound 0.1 μM plus IL-1β versus IL-1β only, read-out: PGE2-HTRF over IL1-β: Fold induction at 0.1 μM; for fold induction at 1 µM: compound 1 μM plus IL-1β versus IL-1β only, read-out: PGE2-HTRF over IL1-β: Fold induction at 1 μM
T1 construct: endogenous in cells; host or cells: A549 human lung adenocarcinoma cells
T1 sequence (P15428 1-266): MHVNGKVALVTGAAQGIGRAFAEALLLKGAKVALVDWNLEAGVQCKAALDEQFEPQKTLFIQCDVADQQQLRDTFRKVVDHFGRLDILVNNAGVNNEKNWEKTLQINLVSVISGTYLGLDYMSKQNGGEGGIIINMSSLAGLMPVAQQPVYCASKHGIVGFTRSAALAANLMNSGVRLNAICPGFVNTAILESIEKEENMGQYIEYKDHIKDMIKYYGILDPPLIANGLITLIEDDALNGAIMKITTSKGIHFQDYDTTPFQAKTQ
Protocol: Cell Based Assay: 15-PGDH is highly expressed in resting human lung adenocarcinoma cells (A549) (Tong et al., 2006), and this cell line was used to assess 15-PGDH inhibition by MF-300Na in vitro.
In this assay, A549 cells are treated with interleukin (IL) 1β, which induces the expression of cycloxygenase-2 and the synthesis of PGE2 (Tong et al., 2006). In the studies evaluating test articles, thirty thousand A549 cells were seeded in 100 μL F12K completed media and incubated for 24 hours at 37° C. with 5% CO2 before being serum-starved for 24 hours. On the day of the experiment, buffer was changed to complete medium, and cells were incubated for 30 minutes with compounds prior to the addition of IL-1β (final concentration of 0.1-0.25 ng/mL) overnight at 37° C. with 5% CO2. Each concentration was run in triplicate. […] The PGE2 in the supernatant was detected and quantified using a Cisbio HTRF technology (Homogeneous Time-Resolved Fluorescence) kit (62P2APEG-62P2APEH) according to the manufacturer's recommendations, quantifying the fold induction of PGE2 of cells treated with IL-1b plus test article, versus treatment with IL-1b only.

15-PGDH/HPGD = biological target: T2, 15-PGDH/HPGD (Homo sapiens, UniProt P15428); assay: hPGDH inhibitor screening biochemical assay; details: 10 nM enzyme, 15 μM PGE2, 0.25 mM NAD, fluorescence ex/em 340/485 nm
T2 construct: purchased R&D System 5660-DH
T2 sequence (P15428 1-266): T1 sequence (P15428 1-266)
Protocol: A hydroxyprostaglandin dehydrogenase inhibition screening biochemical assay can be performed to assess the synthesized inhibitors provided herein. Provided herein is an exemplary biochemical assay for hPGDH inhibitor screening.
The in vitro biochemical assay can be performed in white, 384 plates in total 20 μl reaction volume consisting of 10 nM of 15-PGDH/HPGD (R&D System #5660-DH), 15 μM Prostaglandin E2 (Sigma, Cat #P5640-10MG) and 0.25 mM β-Nicotinamide adenine dinucleotide sodium salt (Sigma, Cat #N0632-5G) made in reaction buffer (50 mM Tris-HCl, pH 7.5, 0.01% Tween 20) at 10-point dose response curve for test/tool compounds. Briefly, 5 μl (4×) of compounds solution and 5 μl (final concentration, 10 nM) of enzyme solution is added to white 384 well plates and incubated for 10 mins at 37° C. 5 μl (4×) of Prostaglandin E2 and 5 μl (4×) of β-Nicotinamide adenine dinucleotide sodium salt is added to the wells and incubated for 10 mins at room temperature. Fluorescence is recorded at ex/em=340 nm/485 nm. The percentage ([…]) inhibition of enzyme activity was determined relative to positive control (1% DMSO) and IC50 was calculated using GraphPad prism software (four parameter-variable slope equation).

SMILES	fold induction at 0.001 µM (15-PGDH)	fold induction at 0.01 µM (15-PGDH)	fold induction at 0.1 µM (15-PGDH)	fold induction at 1 µM (15-PGDH)	IC50 (15-PGDH/HPGD) [nM]
Cc1nc(-c2ccc(-n3nnc4cc(C(=O)N5CCC[C@H](C)C5)cnc43)cc2)no1 [Compound C-29]	3.78	4.08	6.4	4.88	–
O=C(c1cnc2c(cnn2-c2ccc(-c3nnc[nH]3)cc2)c1)N1CCCC(F)(F)C1 [Compound C-59]	0.91	3.09	4.74	4.32	–
C[C@H]1CCCN(C(=O)c2cnc3c(cnn3-c3ccc(N4CCNC4=O)nc3)c2)C1 [Compound C-57]	4.07	4.94	4.94	4.86	< 100
C[C@H]1CCCN(C(=O)c2cnc3c(cnn3-c3ccc4nc(N)nn4c3)c2)C1 [Compound C-27]	1.04	2.06	3.36	4.68	< 100
C[C@H]1CCCN(C(=O)c2cnc3c(c2)nnn3-c2ccc(-c3nnc[nH]3)cc2)C1 [Compound C-19]	1.11	1.81	3.61	4.5	< 100

The remaining lines, values ahead:

fold induction at 0.001 µM (15-PGDH)	fold induction at 0.01 µM (15-PGDH)	fold induction at 0.1 µM (15-PGDH)	fold induction at 1 µM (15-PGDH)	IC50 (15-PGDH/HPGD) [nM]	SMILES
1.04	0.76	2.06	3.61	–	O=C(c1cnc2c(cnn2-c2cncc(N3CCOCC3)c2)c1)N1CCC(F)(F)CC1 [Compound C-28]
0.98	2.14	5.31	4.88	< 100	O=C(c1cnc2c(cnn2-c2ccc(-c3ncn[nH]3)cc2)c1)N1CCC(F)(F)CC1 [Compound C-6]
1.16	1.68	2.5	3.79	–	CCOc1ccc(-n2nnc3cc(C(=O)N4CCC[C@H](C)C4)cnc32)cc1 [Compound C-30]
2.08	3.56	4.84	6.39	< 100	C[C@H]1CCCN(C(=O)c2cnc3c(cnn3-c3ccc(N4CCOC4=O)nc3)c2)C1 [Compound C-25]
1.05	1.31	1.8	3.45	–	C[C@H]1CCCN(C(=O)c2cnc3c(cnn3-c3ccc(N4CCOCC4)nc3)c2)C1 [Compound C-26]

From patent publication US20240374579A1, “BICYCLIC PGDH INHIBITORS AND METHODS OF MAKING AND USING” (EPIRIUM BIO INC., priority 2021, published 2024)
